Data reported in US11008346B2, “Beta-lactamase inhibitors” (priority 2014, dated 2021).
Where two headings read alike, the source gives them in different places.

Tests used:
[1] = system: E. cloacae 144200 expressing Class C P99 AmpC; assay: broth microdilution MIC, E. cloacae P99; assay type: cell-based; conditions: Fixed CAZ (ceftazidime) 4 μg/mL
Summary of the method: (§1)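 Visual MIC readout after 16-20 hours at 37° C, reflecting compound concentration that restores growth inhibition by a beta-lactam held constant at 4 μg/mL. Compound was titrated 2-fold, 32 to 0.25 μg/mL final, in cation-adjusted Mueller Hinton broth.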

[2] = system: S. aureus MSSA-7 producing penicillinase PC-1; assay: broth microdilution MIC, S. aureus PC-1; assay type: cell-based; conditions: Fixed Pip (piperacillin) 4 μg/mL
Source text: (§2) To determine the ability of test compounds to potentiate the inhibition of the growth of bacterial strains that produce beta-lactamase enzymes, classic cell based broth microdilution MIC assays were employed. Six bacteria strains producing beta-lactamase enzymes were used: E. coli expressing the Class A Extended Spectrum Beta-Lactamase (ESBL) CTX-M-15, E. cloacae expressing the Class C P99, K. pneumoniae expressing the Class A carbapenemase KPC-3, P. aeruginosa expressing the Class B carbapenemase VIM-2, K pneumoniae expressing the class A carbapenemase KPC-2 and the class B carbapenemase VIM-4, and S. aureus producing the Class A penicillinase PC-1. The assay was conducted in Cation Adjusted Mueller Hinton Broth (CAMHB, BD #212322, BD Diagnostic Systems, Sparks, Md.). Bacteria strains were grown for 3-5 hours in CAMBH broth. Test compounds were added to a microtiter plate in 2-fold serial dilutions in CAMHB in a final concentration range of 32 μg/mL to 0.25 μg/ml. An overlay of CAMHB containing a Beta-lactam was added to the compounds at a final static concentration of 4 μg/ml. […] In addition to the titration of test compounds the MICs of a panel of control beta-lactams is also tested to ensure the strains are behaving consistently from test to test. Once the test compound and antibiotics are added the plates can be inoculated according to CLSI broth microdilution method. After inoculation the plates are incubated for 16-20 hours at 37° C., then the Minimal Inhibitory Concentration (MIC) of the test compound is determined visually.
(§3) Using the methodology described above, examples of the current invention were evaluated for their ability to inhibit the growth of β-lactamase-producing bacteria in the presence of a β-lactam antibiotic.
(§4) Representative results are shown in Table 4 where A represents an MIC of the fixed β-lactam antibiotic in the presence of >32 µg/mL of a β-lactamase inhibitor of exemplary compounds, B represents the MIC in the presence of between 8 and 32 µg/mL of a β-lactamase inhibitor of exemplary compounds, and C represents the MIC in the presence of ≤4 µg/mL of a β-lactamase inhibitor of exemplary compounds. NT=Not Tested.

p99 AmpC β-lactamase = target: T1, p99 AmpC β-lactamase (Enterobacter cloacae, UniProt P05364); assay: β-lactamase enzyme inhibition, p99 AmpC; assay type: biochemical
T1 construct: made in house; host or cells: E. coli BL21(DE3)
Summary of the method: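 Inhibitor and enzyme were incubated 15 min at 37°C first. The enzyme was recombinant p99 AmpC, untagged, from E. coli BL21(DE3), purified by ion-exchange and size-exclusion chromatography.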

[3] = system: P. aeruginosa Ps296 expressing VIM-2; assay: broth microdilution MIC, P. aeruginosa VIM-2; assay type: cell-based; conditions: Fixed Mero (meropenem) 4 μg/mL
Source text: as §2, §3, §4

KPC-2 β-lactamase = target: T2, KPC-2 β-lactamase (Klebsiella pneumoniae, UniProt Q9F663); assay: β-lactamase enzyme inhibition, KPC-2; assay type: biochemical
T2 construct: made in house; host or cells: E. coli BL21(DE3)
Summary of the method: (§5)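 Absorbance-based kinetic read over 10 min after a 15 min, 37° C enzyme–inhibitor preincubation. Substrates differed by target: nitrocefin at 100 μM final (OXA-1, p99 AmpC; 486 nm), imipenem (KPC-2; 300 nm), cefotaxime (SHV-5; 260 nm). Percent inhibition per concentration gave the IC50.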

[4] = system: E. coli ESBL4 expressing CTX-M-15; assay: broth microdilution MIC, E. coli CTX-M-15; assay type: cell-based; conditions: Fixed CAZ (ceftazidime) 4 μg/mL
Summary of the method: as §1

OXA-1 β-lactamase = target: T3, OXA-1 β-lactamase (Escherichia coli, UniProt P13661); assay: β-lactamase enzyme inhibition, OXA-1; assay type: biochemical; conditions: Nitrocefin 100 μM, 486 nm; 15 min at 37° C. preincubation; read-out: IC50 OXA-1 (Class D)
T3 construct: made in house; host or cells: E. coli BL21(DE3)
Summary of the method: as §5

[5] = system: K. pneumoniae 156319 expressing KPC-3; assay: broth microdilution MIC, K. pneumoniae KPC-3; assay type: cell-based; conditions: Fixed Mero (meropenem) 4 μg/mL
Summary of the method: as §1

SHV-5 β-lactamase = target: T4, SHV-5 β-lactamase (Klebsiella pneumoniae, UniProt P0A3M1); assay: β-lactamase enzyme inhibition, SHV-5; assay type: biochemical
T4 construct: made in house; host or cells: E. coli BL21(DE3)
Summary of the method: as §5

[6] = target: T5, VIM-2 metallo β-lactamase (Pseudomonas aeruginosa, UniProt Q9K2N0); assay: β-lactamase enzyme inhibition, VIM-2; assay type: biochemical; conditions: Nitrocefin 100 μM, 486 nm; 15 min at 37° C. preincubation; read-out: IC50 VIM-2 (Class B)
T5 construct: made in house; host or cells: E. coli BL21(DE3)
Summary of the method: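 Inhibitor and enzyme sat together 15 min at 37° C before 100 μM nitrocefin (final) was added and 486 nm absorbance read for 10 min. IC50 is the concentration halving initial hydrolysis rate relative to uninhibited wells. Protein came from Q sepharose anion exchange at pH 7.5, repeated to >90% purity.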

[7] = system: K. pneumoniae A-1797 expressing KPC-2 and VIM-4; assay: broth microdilution MIC, K. pneumoniae KPC-2 and VIM-4; assay type: cell-based; conditions: Fixed Mero (meropenem) 4 μg/mL
Summary of the method: as §1

[8] = imipenem substrate, 300 nm, 15 min at 37° C. preincubation, read-out: IC50 KPC-2 (Class A)

T4 sequence (P0A3M1 22-286): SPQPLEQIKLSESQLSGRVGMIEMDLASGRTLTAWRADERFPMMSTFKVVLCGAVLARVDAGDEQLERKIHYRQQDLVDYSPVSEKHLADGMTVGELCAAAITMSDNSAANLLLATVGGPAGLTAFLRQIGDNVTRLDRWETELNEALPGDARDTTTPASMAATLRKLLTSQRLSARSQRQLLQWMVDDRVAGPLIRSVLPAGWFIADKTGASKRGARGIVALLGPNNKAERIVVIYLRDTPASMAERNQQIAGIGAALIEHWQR
T2 sequence (Q9F663 25-293, looked up): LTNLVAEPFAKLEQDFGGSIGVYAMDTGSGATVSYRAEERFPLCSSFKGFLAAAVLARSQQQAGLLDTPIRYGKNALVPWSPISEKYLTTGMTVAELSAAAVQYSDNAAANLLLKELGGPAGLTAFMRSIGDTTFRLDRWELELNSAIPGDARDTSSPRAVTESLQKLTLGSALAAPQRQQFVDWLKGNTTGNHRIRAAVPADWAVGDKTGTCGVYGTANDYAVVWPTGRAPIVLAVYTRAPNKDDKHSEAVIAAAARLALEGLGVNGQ
T3 sequence (P13661 26-276): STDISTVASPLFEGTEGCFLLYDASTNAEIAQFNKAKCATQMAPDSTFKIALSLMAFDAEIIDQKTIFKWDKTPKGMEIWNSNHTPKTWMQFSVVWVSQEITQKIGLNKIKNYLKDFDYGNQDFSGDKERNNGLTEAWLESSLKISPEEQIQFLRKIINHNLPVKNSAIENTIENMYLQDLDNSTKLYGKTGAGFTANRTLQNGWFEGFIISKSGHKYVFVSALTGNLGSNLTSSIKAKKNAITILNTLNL
T1 sequence (P05364 21-381): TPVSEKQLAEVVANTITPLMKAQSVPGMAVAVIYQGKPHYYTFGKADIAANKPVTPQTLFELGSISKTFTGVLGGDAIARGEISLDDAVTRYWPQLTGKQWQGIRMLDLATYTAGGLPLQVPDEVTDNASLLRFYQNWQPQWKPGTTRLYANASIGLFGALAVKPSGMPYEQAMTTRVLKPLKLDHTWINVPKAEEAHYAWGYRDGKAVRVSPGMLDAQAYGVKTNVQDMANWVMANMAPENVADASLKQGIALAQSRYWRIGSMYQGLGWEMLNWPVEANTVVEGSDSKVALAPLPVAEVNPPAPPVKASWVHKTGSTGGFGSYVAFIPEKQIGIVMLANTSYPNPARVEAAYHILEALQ

| Compound | MIC of exemplary compounds in presence of fixed β-lactams, E. cl. 144200 p99 AmpC [1] | MIC of exemplary compounds in presence of fixed β-lactams, S. aureus MSSA-7 PC-1 [2] | IC50 (p99 AmpC β-lactamase) [µM] | MIC of exemplary compounds in presence of fixed β-lactams, P. aerug. Ps296 VIM-2 [3] | IC50 (KPC-2 β-lactamase) [µM] | MIC of exemplary compounds in presence of fixed β-lactams, E. coli ESBL4 CTX-M-15 [4] | IC50 (OXA-1 β-lactamase) [µM] | MIC of exemplary compounds in presence of fixed β-lactams, K.P. 156319 KPC-3 [5] | IC50 (SHV-5 β-lactamase) [µM] | IC50 [6] [µM] | MIC of exemplary compounds in presence of fixed β-lactams, K.P. A-1797 KPC-2 VIM-4 [7] | IC50 (KPC-2 β-lactamase; [8]) [µM] |
| --- | --- | --- | --- | --- | --- | --- | --- | --- | --- | --- | --- | --- |
| N#CCCC(=O)N[C@H]1Cc2cccc(C(=O)O)c2OB1O [Example 8, (R)-3-(3-Cyano-propionylamino)-2-hydroxy-3,4-dihydro-2H-benzo[e][1,2]oxaborinine-8-carboxylic acid] | C (C represents the MIC in the presence of ≤4 g/mL of a β-lactamase inhibitor) | C (C represents the MIC in the presence of ≤4 g/mL of a β-lactamase inhibitor) | < 0.1 | C (C represents the MIC in the presence of ≤4 g/mL of a β-lactamase inhibitor) | < 0.1 | C (C represents the MIC in the presence of ≤4 g/mL of a β-lactamase inhibitor) | < 0.1 | C (C represents the MIC in the presence of ≤4 g/mL of a β-lactamase inhibitor) | < 0.1 | 0.1 to 1 | C (C represents the MIC in the presence of ≤4 g/mL of a β-lactamase inhibitor) |  |
| CN(C)C(=O)CCC(=O)N[C@H]1Cc2cccc(C(=O)O)c2OB1O [Example 15, (R)-3-(3-Dimethylcarbamoyl-propionylamino)-2-hydroxy-3,4-dihydro-2H-benzo[e][1,2]oxaborinine-8-carboxylicacid] | C (C represents the MIC in the presence of ≤4 g/mL of a β-lactamase inhibitor) | C (C represents the MIC in the presence of ≤4 g/mL of a β-lactamase inhibitor) | < 0.1 | B (B represents the MIC in the presence of between 8 and 32 g/mL of a β-lactamase inhibitor) |  | C (C represents the MIC in the presence of ≤4 g/mL of a β-lactamase inhibitor) | < 0.1 | C (C represents the MIC in the presence of ≤4 g/mL of a β-lactamase inhibitor) | < 0.1 | 10 to 100 | A (A represents an MIC of the fixed β-lactam antibiotic in the presence of >32 g/mL of a β-lactamase inhibitor) | < 0.1 |
| CCCC(=O)N[C@H]1Cc2cccc(C(=O)O)c2OB1O [Example 1, (R)-3-Butyrylamino-2-hydroxy-3,4-dihydro-2H-benzo[e][1,2]oxaborinine-8-carboxylic acid] | C (C represents the MIC in the presence of ≤4 g/mL of a β-lactamase inhibitor) | C (C represents the MIC in the presence of ≤4 g/mL of a β-lactamase inhibitor) | < 0.1 | A (A represents an MIC of the fixed β-lactam antibiotic in the presence of >32 g/mL of a β-lactamase inhibitor) | < 0.1 | C (C represents the MIC in the presence of ≤4 g/mL of a β-lactamase inhibitor) | < 0.1 | C (C represents the MIC in the presence of ≤4 g/mL of a β-lactamase inhibitor) | < 0.1 | 1 to 10 | A (A represents an MIC of the fixed β-lactam antibiotic in the presence of >32 g/mL of a β-lactamase inhibitor) |  |
| O=C(/C=C/c1cocn1)N[C@H]1Cc2cccc(C(=O)O)c2OB1O [Example 44, (R)-2-Hydroxy-3-(3-oxazol-4-yl-acryloylamino)-3,4-dihydro-2H-benzo[e][1,2]oxaborinine-8-carboxylicacid] | C (C represents the MIC in the presence of ≤4 g/mL of a β-lactamase inhibitor) | C (C represents the MIC in the presence of ≤4 g/mL of a β-lactamase inhibitor) | < 0.1 | C (C represents the MIC in the presence of ≤4 g/mL of a β-lactamase inhibitor) |  | C (C represents the MIC in the presence of ≤4 g/mL of a β-lactamase inhibitor) | < 0.1 | C (C represents the MIC in the presence of ≤4 g/mL of a β-lactamase inhibitor) | < 0.1 | 0.1 to 1 | B (B represents the MIC in the presence of between 8 and 32 g/mL of a β-lactamase inhibitor) | < 0.1 |
| NC(=O)NCCC(=O)N[C@H]1Cc2cccc(C(=O)O)c2OB1O [Example 23, (R)-2-Hydroxy-3-(3-ureido-propionylamino)-3,4-dihydro-2H-benzo[e][1,2]oxaborinine-8-carboxylic acid] | C (C represents the MIC in the presence of ≤4 g/mL of a β-lactamase inhibitor) | C (C represents the MIC in the presence of ≤4 g/mL of a β-lactamase inhibitor) | < 0.1 | C (C represents the MIC in the presence of ≤4 g/mL of a β-lactamase inhibitor) |  | C (C represents the MIC in the presence of ≤4 g/mL of a β-lactamase inhibitor) | < 0.1 | C (C represents the MIC in the presence of ≤4 g/mL of a β-lactamase inhibitor) | 0.1 to 1 | 1 to 10 | B (B represents the MIC in the presence of between 8 and 32 g/mL of a β-lactamase inhibitor) | < 0.1 |
